biological target: T1, AMPA receptor (human GluR1 flip/stargazin expressed in CHO-K1 cells) (Homo sapiens, UniProt P42261); experiment: AMPA receptor function enhancing activity using calcium influx as index; assay type: cell-based; conditions: test compound 30 μM with glutamic acid final 3 mM, change in fluorescence in 3 min, 100% = 3 mM glutamic acid + 300 μM cyclothiazide, 0% = 3 mM glutamic acid only
T1 construct: expressed in transfected cells; host or cells: CHO-K1
In short: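 CHO-K1 clone stably co-expressing human GluR1 flip and stargazin, loaded with Calcium 4 dye plus probenecid. Compound at 30 μM was added with glutamate (3 mM final) and fluorescence change followed over 3 min. Activity is expressed as % of the 3 mM glutamate plus 300 μM cyclothiazide response, with glutamate alone as 0%.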

T1 sequence (P42261 19-906 isoform P42261-2 limits assumed): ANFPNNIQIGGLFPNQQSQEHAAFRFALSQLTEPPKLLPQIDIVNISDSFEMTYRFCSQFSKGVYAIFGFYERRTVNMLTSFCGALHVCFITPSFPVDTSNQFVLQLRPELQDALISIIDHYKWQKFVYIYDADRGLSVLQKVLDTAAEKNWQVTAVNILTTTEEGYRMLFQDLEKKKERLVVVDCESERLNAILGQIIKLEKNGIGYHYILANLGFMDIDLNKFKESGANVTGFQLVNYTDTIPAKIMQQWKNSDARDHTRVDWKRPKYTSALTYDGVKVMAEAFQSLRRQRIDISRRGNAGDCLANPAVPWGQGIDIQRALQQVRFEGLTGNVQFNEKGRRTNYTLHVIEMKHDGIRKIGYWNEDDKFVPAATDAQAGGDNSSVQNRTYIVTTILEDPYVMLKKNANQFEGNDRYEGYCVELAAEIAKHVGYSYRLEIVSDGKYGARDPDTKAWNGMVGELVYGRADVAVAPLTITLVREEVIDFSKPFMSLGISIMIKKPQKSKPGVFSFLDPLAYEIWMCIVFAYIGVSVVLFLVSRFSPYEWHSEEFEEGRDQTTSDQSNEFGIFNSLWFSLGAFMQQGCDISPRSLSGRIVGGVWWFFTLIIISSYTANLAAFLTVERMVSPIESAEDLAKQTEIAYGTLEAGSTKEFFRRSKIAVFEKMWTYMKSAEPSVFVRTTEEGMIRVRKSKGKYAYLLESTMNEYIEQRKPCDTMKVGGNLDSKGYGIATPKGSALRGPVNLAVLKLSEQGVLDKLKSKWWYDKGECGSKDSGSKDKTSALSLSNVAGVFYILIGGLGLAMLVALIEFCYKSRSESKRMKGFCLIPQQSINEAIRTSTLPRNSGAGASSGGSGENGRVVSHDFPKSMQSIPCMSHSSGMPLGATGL
T1 sequence (Q9Y698 whole entry partner): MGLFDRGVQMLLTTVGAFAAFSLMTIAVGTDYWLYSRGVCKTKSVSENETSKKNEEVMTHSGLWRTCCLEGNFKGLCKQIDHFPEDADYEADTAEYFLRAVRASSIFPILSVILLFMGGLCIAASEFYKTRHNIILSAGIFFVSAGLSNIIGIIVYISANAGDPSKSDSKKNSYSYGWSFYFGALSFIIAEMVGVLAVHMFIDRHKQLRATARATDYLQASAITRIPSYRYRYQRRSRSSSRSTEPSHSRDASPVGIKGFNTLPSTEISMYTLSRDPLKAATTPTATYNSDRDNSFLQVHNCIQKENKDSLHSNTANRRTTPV

In order of falling “activity (%)” value:
1. CC(C)c1ccc(C2=CC=CN3CCS(=O)(=O)N=C23)cc1 [Example 23, 9-[4-(1-methylethyl)phenyl]-3,4-dihydropyrido[2,1-c][1,2,4]thiadiazine 2,2-dioxide]  104%
2. Cn1ccc2cc(C3=CC=CN4CCS(=O)(=O)N=C34)ccc21 [Example 412, 9-(1-methyl-1H-indol-5-yl)-3,4-dihydropyrido[2,1-c][1,2,4]thiadiazine 2,2-dioxide]  91%
3. CC(C)c1ccc(C#CC2=CC=CN3CCS(=O)(=O)N=C23)cc1 [Example 26, 9-{[4-(1-methylethyl)phenyl]ethynyl}-3,4-dihydropyrido[2,1-c][1,2,4]thiadiazine 2,2-dioxide]  87%
4. O=S1(=O)CCN2CCCC(c3ccc(-c4ccccc4)cc3)C2=N1 (stereo not shown) [Example 28, 9-biphenyl-4-yl-3,4,6,7,8,9-hexahydropyrido[2,1-c][1,2,4]thiadiazine 2,2-dioxide]  80%
5. Cc1ccc(C2=CC=CN3CCS(=O)(=O)N=C23)cc1F [Example 423, 9-(3-fluoro-4-methylphenyl)-3,4-dihydropyrido[2,1-c][1,2,4]thiadiazine 2,2-dioxide]  80%
6. O=S1(=O)CCN2C=CC=C(c3ccc(Oc4ccccc4)cc3)C2=N1 [Example 31, 9-(4-phenoxyphenyl)-3,4-dihydropyrido[2,1-c][1,2,4]thiadiazine 2,2-dioxide]  79%
7. O=S1(=O)CCN2C=CC=C(c3ccc(-c4ccccc4)cc3)C2=N1 [Example 14, 9-biphenyl-4-yl-3,4-dihydropyrido[2,1-c][1,2,4]thiadiazine 2,2-dioxide]  78%
8. O=S1(=O)CCN2C=CC=C(c3ccc(OC(F)(F)F)cc3)C2=N1 [Example 34, 9-[4-(trifluoromethoxy)phenyl]-3,4-dihydropyrido[2,1-c][1,2,4]thiadiazine 2,2-dioxide]  78%
9. O=S1(=O)CCN2CCCC(c3ccc(Oc4ccc(F)c(Cl)c4)cc3)C2=N1 (stereo not shown) [Example 447, 9-[4-(3-chloro-4-fluorophenoxy)phenyl]-3,4,6,7,8,9-hexahydropyrido[2,1-c][1,2,4]thiadiazine 2,2-dioxide]  78%
10. COc1ccc2ccc(OC3CCCN4CCS(=O)(=O)N=C34)cc2c1 (stereo not shown) [Example 462, 9-[(7-methoxynaphthalen-2-yl)oxy]-3,4,6,7,8,9-hexahydropyrido[2,1-c][1,2,4]thiadiazine 2,2-dioxide]  69%
11. O=S1(=O)CCN2CCCC(c3ccc(Oc4ccccc4Cl)cc3)C2=N1 (stereo not shown) [Example 433, 9-[4-(2-chlorophenoxy)phenyl]-3,4,6,7,8,9-hexahydropyrido[2,1-c][1,2,4]thiadiazine 2,2-dioxide]  55%

test system: not given; experiment: not given; conditions: not given

First: O=S1(=O)CCN2C=CC=C(c3ccc(-c4ccccc4)cc3)C2=N1 [Example 14, 9-biphenyl-4-yl-3,4-dihydropyrido[2,1-c][1,2,4]thiadiazine 2,2-dioxide]
Second: O=S1(=O)CCN2C=CC=C(c3ccc(Oc4ccccc4)cc3)C2=N1 [Example 31, 9-(4-phenoxyphenyl)-3,4-dihydropyrido[2,1-c][1,2,4]thiadiazine 2,2-dioxide]
The melting point of the first is higher: 315 to 316 °C for the first, 252 to 253 °C for the second.

First: CC(C)c1ccc(C2=CC=CN3CCS(=O)(=O)N=C23)cc1 [Example 23, 9-[4-(1-methylethyl)phenyl]-3,4-dihydropyrido[2,1-c][1,2,4]thiadiazine 2,2-dioxide]
Second: CCC(C)c1ccc(C2=CC=CN3CCS(=O)(=O)N=C23)cc1 (stereo not shown) [Example 32, 9-[4-(1-methylpropyl)phenyl]-3,4-dihydropyrido[2,1-c][1,2,4]thiadiazine 2,2-dioxide]
The melting point of the first is higher: 239 to 241 °C for the first, 237 to 239 °C for the second.

Compared with `CC(C)c1ccc(C#CC2=CC=CN3CCS(=O)(=O)N=C23)cc1` [Example 26, 9-{[4-(1-methylethyl)phenyl]ethynyl}-3,4-dihydropyrido[2,1-c][1,2,4]thiadiazine 2,2-dioxide], `CC(C)Oc1ccc(C2=CC=CN3CCS(=O)(=O)N=C23)cc1` [Example 33, 9-[4-(1-methylethoxy)phenyl]-3,4-dihydropyrido[2,1-c][1,2,4]thiadiazine 2,2-dioxide] is lower in melting point: 258 to 262 °C for the first, 245 to 247 °C for the second.

First: O=S1(=O)CCN2CCCC(c3ccc(-c4ccccc4)cc3)C2=N1 (stereo not shown) [Example 28, 9-biphenyl-4-yl-3,4,6,7,8,9-hexahydropyrido[2,1-c][1,2,4]thiadiazine 2,2-dioxide]
Second: O=S1(=O)CCN2CCC[C@H](c3ccc(Oc4ccccc4)cc3)C2=N1 [Example 62, (9R)-9-(4-phenoxyphenyl)-3,4,6,7,8,9-hexahydropyrido[2,1-c][1,2,4]thiadiazine 2,2-dioxide]
The melting point of the first is higher: 238 to 239 °C for the first, 171 to 176 °C for the second.

Compared with `O=S1(=O)CCN2C=CC=C(c3ccc(OC(F)(F)F)cc3)C2=N1` [Example 34, 9-[4-(trifluoromethoxy)phenyl]-3,4-dihydropyrido[2,1-c][1,2,4]thiadiazine 2,2-dioxide], `O=S1(=O)CCN2C=CC=C(c3ccc(Oc4ccc(C(F)(F)F)cc4)cc3)C2=N1` [Example 200, 9-{4-[4-(trifluoromethyl)phenoxy]phenyl}-3,4-dihydropyrido[2,1-c][1,2,4]thiadiazine 2,2-dioxide] is higher in melting point: 249 to 251 °C for the first, 253 to 255 °C for the second.

First: CC(C)(C)c1ccc(C2=CC=CN3CCS(=O)(=O)N=C23)cc1 [Example 35, 9-(4-tert-butylphenyl)-3,4-dihydropyrido[2,1-c][1,2,4]thiadiazine 2,2-dioxide]
Second: CCCCOc1ccc(C2=CC=CN3CCS(=O)(=O)N=C23)cc1 [Example 209, 9-(4-butoxyphenyl)-3,4-dihydropyrido[2,1-c][1,2,4]thiadiazine 2,2-dioxide]
The melting point of the first is higher: 291 to 292 °C for the first, 230 to 232 °C for the second.

Compared with `CC(C)(C)c1ccc(C2CCCN3CCS(=O)(=O)N=C23)cc1` (stereo not shown) [Example 38, 9-(4-tert-butylphenyl)-3,4,6,7,8,9-hexahydropyrido[2,1-c][1,2,4]thiadiazine 2,2-dioxide], `CC(C)c1ccc(C2CCCN3CCS(=O)(=O)N=C23)cc1` (stereo not shown) [Example 42, 9-[4-(1-methylethyl)phenyl]-3,4,6,7,8,9-hexahydropyrido[2,1-c][1,2,4]thiadiazine 2,2-dioxide] is lower in melting point: 232 to 236 °C for the first, 198 to 203 °C for the second.

First: CC(C)Oc1ccc(C2CCCN3CCS(=O)(=O)N=C23)cc1 (stereo not shown) [Example 40, 9-[4-(1-methylethoxy)phenyl]-3,4,6,7,8,9-hexahydropyrido[2,1-c][1,2,4]thiadiazine 2,2-dioxide]
Second: CCCOc1ccc(C2CCCN3CCS(=O)(=O)N=C23)cc1 (stereo not shown) [Example 190, 9-(4-propoxyphenyl)-3,4,6,7,8,9-hexahydropyrido[2,1-c][1,2,4]thiadiazine 2,2-dioxide]
The melting point of the first is higher: 191 to 192 °C for the first, 169 to 170 °C for the second.

First: O=S1(=O)CCN2CCCC(c3ccc(OC(F)(F)F)cc3)C2=N1 (stereo not shown) [Example 41, 9-[4-(trifluoromethoxy)phenyl]-3,4,6,7,8,9-hexahydropyrido[2,1-c][1,2,4]thiadiazine 2,2-dioxide]
Second: O=S1(=O)CCN2CCCC(c3ccc(Oc4ccc(C(F)(F)F)cc4)cc3)C2=N1 (stereo not shown) [Example 233, 9-{4-[4-(trifluoromethyl)phenoxy]phenyl}-3,4,6,7,8,9-hexahydropyrido[2,1-c][1,2,4]thiadiazine 2,2-dioxide]
The melting point of the first is higher: 207 to 208 °C for the first, 177 to 179 °C for the second.

First: O=S1(=O)CCN2C=CC=C(c3ccc(-c4ccccc4)s3)C2=N1 [Example 50, 9-(5-phenylthiophen-2-yl)-3,4-dihydropyrido[2,1-c][1,2,4]thiadiazine 2,2-dioxide]
Second: O=S1(=O)CCN2C=CC=C(c3ccc(Oc4ccccc4)cc3)C2=N1 [Example 166, 9-(4-phenoxyphenyl)-3,4-dihydropyrido[2,1-c][1,2,4]thiadiazine 2,2-dioxide]
The melting point of the first is lower: 241 to 242 °C for the first, 251 to 252 °C for the second.

First: O=S1(=O)CCN2C=CC=C(c3ccc(OC4CCCC4)cc3)C2=N1 [Example 66, 9-[4-(cyclopentyloxy)phenyl]-3,4-dihydropyrido[2,1-c][1,2,4]thiadiazine 2,2-dioxide]
Second: O=S1(=O)CCN2C=CC=C(c3ccc(OC4CCCCC4)cc3)C2=N1 [Example 165, 9-[4-(cyclohexyloxy)phenyl]-3,4-dihydropyrido[2,1-c][1,2,4]thiadiazine 2,2-dioxide]
The melting point of the first is lower: 254 to 256 °C for the first, 275 to 277 °C for the second.

Compared with `O=S1(=O)CCN2C=CC=C(c3ccc(OCC4CCCC4)cc3)C2=N1` [Example 74, 9-[4-(cyclopentylmethoxy)phenyl]-3,4-dihydropyrido[2,1-c][1,2,4]thiadiazine 2,2-dioxide], `O=S1(=O)CCN2C=CC=C(c3ccc(Oc4ccccc4)cc3)C2=N1` [Example 167, 9-(4-phenoxyphenyl)-3,4-dihydropyrido[2,1-c][1,2,4]thiadiazine 2,2-dioxide] is lower in melting point: 258 to 259 °C for the first, 253 to 255 °C for the second.

Compared with `O=S1(=O)CCN2C=C(Cl)C=C(c3ccc(Oc4cc(C(F)(F)F)ccn4)cc3)C2=N1` [Example 76, 7-chloro-9-(4-{[4-(trifluoromethyl)pyridin-2-yl]oxy}phenyl)-3,4-dihydropyrido[2,1-c][1,2,4]thiadiazine 2,2-dioxide], `Cc1ccc(Oc2ccc(C3=CC=CN4CCS(=O)(=O)N=C34)cc2)cc1` [Example 168, 9-[4-(4-methylphenoxy)phenyl]-3,4-dihydropyrido[2,1-c][1,2,4]thiadiazine 2,2-dioxide] is higher in melting point: 238 to 239 °C for the first, 248 to 250 °C for the second.

Compared with `O=S1(=O)CCN2CCCC(c3ccc(Oc4ccc(Cl)cc4)cc3)C2=N1` (stereo not shown) [Example 150, 9-[4-(4-chlorophenoxy)phenyl]-3,4,6,7,8,9-hexahydropyrido[2,1-c][1,2,4]thiadiazine 2,2-dioxide], `CCc1ccc(Oc2ccc([C@H]3CCCN4CCS(=O)(=O)N=C34)cc2)cc1` [Example 217, (9R)-9-[4-(4-ethylphenoxy)phenyl]-3,4,6,7,8,9-hexahydropyrido[2,1-c][1,2,4]thiadiazine 2,2-dioxide] is lower in melting point: 183 to 185 °C for the first, 152 to 153 °C for the second.

Compared with `CC(F)(F)c1ccc(Oc2ccc(C3CCCN4CCS(=O)(=O)N=C34)cc2)cc1` (stereo not shown) [Example 170, 9-{4-[4-(1,1-difluoroethyl)phenoxy]phenyl}-3,4,6,7,8,9-hexahydropyrido[2,1-c][1,2,4]thiadiazine 2,2-dioxide], `O=S1(=O)CCN2CCC[C@@H](c3ccc(Oc4ccc(F)c(Cl)c4)cc3)C2=N1` [Example 457, (9S)-9-[4-(3-chloro-4-fluorophenoxy)phenyl]-3,4,6,7,8,9-hexahydropyrido[2,1-c][1,2,4]thiadiazine 2,2-dioxide] is lower in melting point: 171 to 172 °C for the first, 154 to 156 °C for the second.

`O=S1(=O)CCN2CCN[C@@H](c3ccc(Oc4ccccc4)cc3)C2=N1` [Example 212, (9S)-(4-phenoxyphenyl)-3,4,6,7,8,9-hexahydropyrazino[2,1-c][1,2,4]thiadiazine 2,2-dioxide] and `O=S1(=O)CCN2CCN[C@H](c3ccc(Oc4ccccc4)cc3)C2=N1` [Example 213, (9R)-9-(4-phenoxyphenyl)-3,4,6,7,8,9-hexahydropyrazino[2,1-c][1,2,4]thiadiazine 2,2-dioxide] fall in the same range of melting point: 124 to 125 °C for the first, 124 to 125 °C for the second.

Reference: US8916551B2, “Heterocyclic compound and use thereof” (Takeda Pharmaceutical Company Limited, priority 2010, dated 2014)
